Usually IC50 stands for the point on the concentration scale where inhibition reaches its midpoint.

The structures appear in SMILES notation.

For assay [1], the target named is T1, Glutamate receptor ionotropic, NMDA 2A (Rattus norvegicus, UniProt Q00959). The assay is described as follows: Inhibition of [3H]Glu binding to rat N-methyl-D-aspartic acid receptor 2A.
Assay [2] deals with T1, Glutamate receptor ionotropic, NMDA 2A. The assay is described as follows: Inhibition of [3H]CPP binding to rat N-methyl-D-aspartic acid receptor 2A.

T1 sequence (Q00959 whole entry): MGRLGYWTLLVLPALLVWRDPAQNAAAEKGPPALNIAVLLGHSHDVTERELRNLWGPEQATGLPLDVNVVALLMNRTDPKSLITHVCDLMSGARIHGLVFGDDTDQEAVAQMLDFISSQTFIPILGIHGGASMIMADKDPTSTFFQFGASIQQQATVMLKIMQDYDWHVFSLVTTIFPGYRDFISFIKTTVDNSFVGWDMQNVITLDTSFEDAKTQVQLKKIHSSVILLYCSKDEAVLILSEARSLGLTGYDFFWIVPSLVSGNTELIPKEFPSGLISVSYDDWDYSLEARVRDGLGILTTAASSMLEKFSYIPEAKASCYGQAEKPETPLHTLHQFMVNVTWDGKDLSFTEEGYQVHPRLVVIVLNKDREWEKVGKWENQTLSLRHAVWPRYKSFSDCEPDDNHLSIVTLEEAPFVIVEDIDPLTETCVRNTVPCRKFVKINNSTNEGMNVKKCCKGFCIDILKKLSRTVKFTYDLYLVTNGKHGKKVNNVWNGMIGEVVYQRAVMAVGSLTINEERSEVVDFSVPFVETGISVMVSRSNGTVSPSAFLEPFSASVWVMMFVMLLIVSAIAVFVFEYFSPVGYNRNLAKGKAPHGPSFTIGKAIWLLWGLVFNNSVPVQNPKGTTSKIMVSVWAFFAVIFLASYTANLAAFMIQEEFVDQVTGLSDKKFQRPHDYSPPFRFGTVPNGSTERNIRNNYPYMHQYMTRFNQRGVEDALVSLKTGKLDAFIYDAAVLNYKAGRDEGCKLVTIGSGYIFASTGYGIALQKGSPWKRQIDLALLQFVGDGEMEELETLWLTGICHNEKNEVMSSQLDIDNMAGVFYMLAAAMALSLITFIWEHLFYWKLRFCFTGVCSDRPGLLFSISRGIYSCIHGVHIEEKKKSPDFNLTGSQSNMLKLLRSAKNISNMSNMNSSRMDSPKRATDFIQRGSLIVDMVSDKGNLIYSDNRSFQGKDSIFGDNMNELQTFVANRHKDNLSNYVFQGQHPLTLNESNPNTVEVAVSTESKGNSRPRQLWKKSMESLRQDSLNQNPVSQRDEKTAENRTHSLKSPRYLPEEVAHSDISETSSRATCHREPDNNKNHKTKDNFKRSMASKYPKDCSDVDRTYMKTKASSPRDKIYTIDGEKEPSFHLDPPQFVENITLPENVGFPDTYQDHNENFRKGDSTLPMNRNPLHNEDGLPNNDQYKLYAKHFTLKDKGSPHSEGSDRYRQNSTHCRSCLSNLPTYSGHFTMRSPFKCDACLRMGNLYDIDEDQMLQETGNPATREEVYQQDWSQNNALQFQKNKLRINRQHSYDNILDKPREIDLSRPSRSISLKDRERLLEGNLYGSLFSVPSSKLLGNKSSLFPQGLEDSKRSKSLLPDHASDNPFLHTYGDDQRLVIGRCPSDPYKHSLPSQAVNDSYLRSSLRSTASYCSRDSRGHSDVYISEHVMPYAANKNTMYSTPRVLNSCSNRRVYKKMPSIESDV

`CCC/C(=C\[C@@H](N)C(=O)O)CP(=O)(O)O` gave a 50% inhibitory concentration (IC50) in assay [1] of 230 nM.
Turning to `N[C@H](CC(=O)CP(=O)(O)O)C(=O)O`, the IC50 in assay [2] turned out to be 110 nM.
With `N[C@@H](CCCP(=O)(O)O)C(=O)O`, the IC50 in assay [1] is 1500 nM; in assay [2], 290 nM.
Take `O=C(O)[C@@H]1C[C@H](CP(=O)(O)O)CCN1` (single isomer, unassigned) [SELFOTEL]: the IC50 in assay [1] was 840 nM; in assay [2], 95 nM.
In the same order, the values of `C/C(=C\[C@@H](N)C(=O)O)CP(=O)(O)O` [CGP-37849] are 220 nM and 35 nM.

Source of the values: ChEMBL document CHEMBL1145170, “Development of a three-dimensional model for the N-methyl-D-aspartate NR2A subunit” (J Med Chem, 2005).
